Data: patent US8921267B2, “Safening 6-(trisubstituted phenyl)-4-amino-2-pyridinecarboxylate herbicide injury on cereal crops” (Dow AgroSciences LLC, priority 2008, dated 2014)

Legend:
[1] = system: cleavers (Galium aparine L; GALAP); assay: Postemergence herbicidal activity, greenhouse, visual injury: cleavers; assay type: in vivo; parameters: key: visual injury, 0–100%: 0 = no injury, 100 = complete kill; details: applied alone
Experimental: (§1) Evaluation of Postemergence Herbicidal Safening in Cereal Crops
(§2) Seeds of the desired test plant species were planted in Sun Gro MetroMix® 306 planting mixture, which typically has a pH of 6.0 to 6.8 and an organic matter content of about 30 percent, in plastic pots with a surface area of 103.2 square centimeters (cm^2). When required to ensure good germination and healthy plants, a fungicide treatment and/or other chemical or physical treatment was applied. The plants were grown for 7-36 days (d) in a greenhouse with an approximate 14-hour (h) photoperiod which was maintained at about 18° C. during the day and 17° C. during the night. Nutrients and water were added on a regular basis and supplemental lighting was provided with overhead metal halide 1000-Watt lamps as necessary. The plants were employed for testing when they reached the second or third true leaf stage.
(§3) Weighed amounts of esters (methyl) or salts (TEA [triethylammonium], K [potassium]) of 4-amino-3-chloro-6-(4-chloro-2-fluoro-3-methoxyphenyl)pyridine-2-carboxylic acid (Compound 1) were dissolved in a volume of 97:3 volume/volume (v/v) acetone/dimethylsulfoxide (DMSO) to obtain stock solutions. […] The concentrated stock solutions were diluted with an aqueous mixture of 1.5% v/v of Agri-dex crop oil concentrate to provide the appropriate application rates. Compound requirements are based upon a 12 mL application volume at a rate of 187 liters per hectare (L/ha). Stocks solutions of the safeners were prepared following the same procedure. Spray solutions of the safeners and experimental compound mixtures were prepared by adding the stock solutions to the appropriate amount of dilution solution to form a 12 mL spray solution with active ingredients in two-way combinations. Formulated compounds were applied to the plant material with an overhead Mandel track sprayer equipped with 8002E nozzles calibrated to deliver 187 L/ha over an application area of 0.503 square meters (m^2) at a spray height of 18 inches (43 centimeters (cm)) above average plant canopy. Control plants were sprayed in the same manner with the solvent blank.
(§4) The treated plants and control plants were placed in a greenhouse as described above and watered by sub-irrigation to prevent wash-off of the test compounds. After 20-22 d, the condition of the test plants as compared with that of the control plants was determined visually and scored on a scale of 0 to 100 percent where 0 corresponds to no injury and 100 corresponds to complete kill.
(§5) Colby's equation was used to determine the herbicidal effects expected from the mixtures (Colby, S. R. Calculation of the synergistic and antagonistic response of herbicide combinations. Weeds 1967, 15, 20-22.).
(§6) The following equation was used to calculate the expected activity of mixtures containing two active ingredients, A and B: Expected=A+B−(A×B/100)
(§7) A=observed efficacy of active ingredient A at the same concentration as used in the mixture.
(§8) B=observed efficacy of active ingredient B at the same concentration as used in the mixture.

[2] = system: kochia (Kochia scoparia L; KCHSC); assay: Postemergence herbicidal activity, greenhouse, visual injury: kochia; assay type: in vivo; parameters: key: % visual injury: 0 = no injury, 100 = complete kill; details: applied alone
Experimental: as §1, §2, §3, §4, §5, §6, §7, §8

[3] = system: purple deadnettle (Lamium purpureum L; LAMPU); assay: Postemergence herbicidal activity, greenhouse, visual injury: purple deadnettle; assay type: in vivo; details: for LAMPU Ob: applied alone
Experimental: as §1, §2, §3, §4, §5, §6, §7, §8

[4] = system: scented mayweed (Matricaria chamomila L; MATCH); assay: Postemergence herbicidal activity, greenhouse, visual injury: scented mayweed; assay type: in vivo; parameters: key: % visual injury: 0 = no injury, 100 = complete kill; details: for MATCH Ob: applied alone
Experimental: as §1, §2, §3, §4, §5, §6, §7, §8

[5] = system: corn poppy (Papaver rhoeas L; PAPRH); assay: Postemergence herbicidal activity, greenhouse, visual injury: corn poppy; assay type: in vivo; details: for PAPRH Ob: applied alone
Experimental: as §1, §2, §3, §4, §5, §6, §7, §8

[6] = system: wild buckwheat (Polygonum convolvulus L; POLCO); assay: Postemergence herbicidal activity, greenhouse, visual injury: wild buckwheat; assay type: in vivo; details: applied alone
Experimental: as §1, §2, §3, §4, §5, §6, §7, §8

[7] = system: Russian thistle (Salsola iberica L; SASKR); assay: Postemergence herbicidal activity, greenhouse, visual injury: Russian thistle; assay type: in vivo; parameters: key: visual injury, 0–100%: 0 = no injury, 100 = complete kill; details: applied alone
Experimental: as §1, §2, §3, §4, §5, §6, §7, §8

[8] = system: chickweed (Stellaria media L; STEME); assay: Postemergence herbicidal activity, greenhouse, visual injury: chickweed; assay type: in vivo; parameters: key: visual injury, 0–100%: 0 = no injury, 100 = complete kill; details: applied alone
Experimental: as §1, §2, §3, §4, §5, §6, §7, §8

[9] = system: bird's-eye speedwell (Veronica persica L; VERPE); assay: Postemergence herbicidal activity, greenhouse, visual injury: bird's-eye speedwell; assay type: in vivo; parameters: key: visual injury, 0–100%: 0 = no injury, 100 = complete kill; details: applied alone
Experimental: as §1, §2, §3, §4, §5, §6, §7, §8

[10] = system: wild pansy (Viola tricolor L; VIOTR); assay: Postemergence herbicidal activity, greenhouse, visual injury: wild pansy; assay type: in vivo; parameters: key: visual injury, 0–100%: 0 = no injury, 100 = complete kill; details: for VIOTR Ob: applied alone
Experimental: as §1, §2, §3, §4, §5, §6, §7, §8

[11] = system: wheat (Triticum aestivum L; TRZAS); assay: Postemergence herbicidal safening, greenhouse, visual injury: wheat; assay type: in vivo; details: for TRZAS Ob: applied alone
Experimental: as §1, §2, §3, §4, §5, §6, §7, §8

[12] = system: barley (Hordeum vulgare L; HORVS); assay: Postemergence herbicidal safening, greenhouse, visual injury: barley; assay type: in vivo; details: for HORVS Ob: applied alone
Experimental: as §1, §2, §3, §4, §5, §6, §7, §8

[13] = system: durum wheat (Triticum durum L; TRZDU); assay: Postemergence herbicidal safening, greenhouse, visual injury: durum wheat; assay type: in vivo
Experimental: as §1, §2, §3, §4, §5, §6, §7, §8

[14] = system: wheat (Triticum aestivum L; TRZAW); assay: Postemergence herbicidal safening, greenhouse, visual injury: wheat (TRZAW); assay type: in vivo
Experimental: as §1, §2, §3, §4, §5, §6, §7, §8

[15] = system: barley (HORVW); assay: Postemergence herbicidal safening, greenhouse, visual injury: barley (HORVW)

## Clc1cc(Cl)nc(-c2ccccc2)n1 [Fenclorim]
[1]; 17.5 g/ha
  GALAP Ob: 0
[1]; 35 g/ha
  GALAP Ob: 0
[1]; 70 g/ha
  GALAP Ob: 0
[1]; 140 g/ha
  GALAP Ob: 0
[2]; 17.5 g/ha
  KCHSC Ob: 0
[2]; 35 g/ha
  KCHSC Ob: 0
[2]; 70 g/ha
  KCHSC Ob: 0
[2]; 140 g/ha
  KCHSC Ob: 0
[3]; 17.5 g/ha
  LAMPU Ob: 0
[3]; 35 g/ha
  LAMPU Ob: 0
[3]; 70 g/ha
  LAMPU Ob: 0
[3]; 140 g/ha
  LAMPU Ob: 0
[4]; 17.5 g/ha
  MATCH Ob: 0
[4]; 35 g/ha
  MATCH Ob: 0
[4]; 70 g/ha
  MATCH Ob: 0
[4]; 140 g/ha
  MATCH Ob: 0
[5]; 17.5 g/ha
  PAPRH Ob: 0
[5]; 35 g/ha
  PAPRH Ob: 0
[5]; 70 g/ha
  PAPRH Ob: 0
[5]; 140 g/ha
  PAPRH Ob: 0
[6]; 17.5 g/ha
  POLCO Ob: 0
[6]; 35 g/ha
  POLCO Ob: 0
[6]; 70 g/ha
  POLCO Ob: 0
[6]; 140 g/ha
  POLCO Ob: 0
[7]; 17.5 g/ha
  SASKR Ob: 0
[7]; 35 g/ha
  SASKR Ob: 0
[7]; 70 g/ha
  SASKR Ob: 0
[7]; 140 g/ha
  SASKR Ob: 0
[8]; 17.5 g/ha
  STEME Ob: 0
[8]; 35 g/ha
  STEME Ob: 0
[8]; 70 g/ha
  STEME Ob: 0
[8]; 140 g/ha
  STEME Ob: 0
[9]; 17.5 g/ha
  VERPE Ob: 0
[9]; 35 g/ha
  VERPE Ob: 0
[9]; 70 g/ha
  VERPE Ob: 0
[9]; 140 g/ha
  VERPE Ob: 0
[10]; 17.5 g/ha
  VIOTR Ob: 0
[10]; 35 g/ha
  VIOTR Ob: 0
[10]; 70 g/ha
  VIOTR Ob: 0
[10]; 140 g/ha
  VIOTR Ob: 0

## O=C(O)CNCP(=O)(O)O [Glyphosate]
[11]; Glyphosate 52.5 g/ha alone
  TRZAS Ob (Observed values): 48
[12]; Glyphosate 52.5 g/ha alone
  HORVS Ob (Observed values): 13
[4]; Glyphosate 52.5 g/ha alone
  MATCH Ob (Observed values): 28
[10]; Glyphosate 52.5 g/ha alone
  VIOTR Ob (Observed values): 52

## CCOC(=O)C1=NN(c2ccc(Cl)cc2Cl)C(C)(C(=O)OCC)C1 (stereo not drawn) [Mefenpyr-diethyl]
[11]; 17.5 g/ha
  TRZAS Ob: 0%
[11]; 35 g/ha
  TRZAS Ob: 0%
[11]; 70 g/ha
  TRZAS Ob: 0%
[11]; 140 g/ha
  TRZAS Ob: 0%
[11]; safener 4.4 g/ha alone
  TRZAS Ob (Observed values): 0
[11]; safener 8.8 g/ha alone
  TRZAS Ob (Observed values): 0
[11]; safener 17.5 g/ha alone
  TRZAS Ob (Observed values): 0
[11]; safener 35 g/ha alone
  TRZAS Ob (Observed values): 0
[12]; 17.5 g/ha
  HORVS Ob: 0%
[12]; 35 g/ha
  HORVS Ob: 0%
[12]; 70 g/ha
  HORVS Ob: 0%
[12]; 140 g/ha
  HORVS Ob: 0%
[12]; safener 4.4 g/ha alone
  HORVS Ob (Observed values): 0
[12]; safener 8.8 g/ha alone
  HORVS Ob (Observed values): 0
[12]; safener 17.5 g/ha alone
  HORVS Ob (Observed values): 0
[12]; safener 35 g/ha alone
  HORVS Ob (Observed values): 0
[1]; 17.5 g/ha
  GALAP Ob: 0
[1]; 35 g/ha
  GALAP Ob: 0
[1]; 70 g/ha
  GALAP Ob: 0
[1]; 140 g/ha
  GALAP Ob: 0
[3]; safener 4.4 g/ha alone
  LAMPU Ob (Observed values): 0
[3]; safener 8.8 g/ha alone
  LAMPU Ob (Observed values): 0
[3]; safener 17.5 g/ha alone
  LAMPU Ob (Observed values): 0
[3]; safener 35 g/ha alone
  LAMPU Ob (Observed values): 0
[5]; 17.5 g/ha
  PAPRH Ob: 0
[5]; 35 g/ha
  PAPRH Ob: 0
[5]; 70 g/ha
  PAPRH Ob: 0
[5]; 140 g/ha
  PAPRH Ob: 0
[5]; safener 4.4 g/ha alone
  PAPRH Ob (Observed values): 0
[5]; safener 8.8 g/ha alone
  PAPRH Ob (Observed values): 0
[5]; safener 17.5 g/ha alone
  PAPRH Ob (Observed values): 0
[5]; safener 35 g/ha alone
  PAPRH Ob (Observed values): 0
[6]; 17.5 g/ha
  POLCO Ob: 0
[6]; 35 g/ha
  POLCO Ob: 0
[6]; 70 g/ha
  POLCO Ob: 0
[6]; 140 g/ha
  POLCO Ob: 0
[7]; 17.5 g/ha
  SASKR Ob: 0
[7]; 35 g/ha
  SASKR Ob: 0
[7]; 70 g/ha
  SASKR Ob: 0
[7]; 140 g/ha
  SASKR Ob: 0
[8]; 17.5 g/ha
  STEME Ob: 0
[8]; 35 g/ha
  STEME Ob: 0
[8]; 70 g/ha
  STEME Ob: 0
[8]; 140 g/ha
  STEME Ob: 0
[9]; 17.5 g/ha
  VERPE Ob: 0
[9]; 35 g/ha
  VERPE Ob: 0
[9]; 70 g/ha
  VERPE Ob: 0
[9]; 140 g/ha
  VERPE Ob: 0
[10]; 17.5 g/ha
  VIOTR Ob: 0
[10]; 35 g/ha
  VIOTR Ob: 0
[10]; 70 g/ha
  VIOTR Ob: 0
[10]; 140 g/ha
  VIOTR Ob: 0
[13]; safener 4.4 g/ha alone
  TRZDU Ob (Observed values): 0%
[13]; safener 8.8 g/ha alone
  TRZDU Ob (Observed values): 0%
[13]; safener 17.5 g/ha alone
  TRZDU Ob (Observed values): 0%
[13]; safener 35 g/ha alone
  TRZDU Ob (Observed values): 0%
[14]; safener 4.4 g/ha alone
  TRZAW Ob (Observed values): 0%
[14]; safener 8.8 g/ha alone
  TRZAW Ob (Observed values): 0%
[14]; safener 17.5 g/ha alone
  TRZAW Ob (Observed values): 0%
[14]; safener 35 g/ha alone
  TRZAW Ob (Observed values): 0%
[15]; safener 4.4 g/ha alone
  HORVW Ob (Observed values): 0%
[15]; safener 8.8 g/ha alone
  HORVW Ob (Observed values): 0%
[15]; safener 17.5 g/ha alone
  HORVW Ob (Observed values): 0%
[15]; safener 35 g/ha alone
  HORVW Ob (Observed values): 0%
